≈ marks a conversion by molar mass, not a printed value.
How the values were obtained:
[1] = Cytotoxicity against monkey Vero cells assessed as cell viability at 50 ug/ml by WST-1 assay relative to control; type: cell-based; settings: chlorocebus sabaeus, read-out: Activity
[2] = system: Mycobacterium tuberculosis; experiment: Antimycobacterial activity against Mycobacterium tuberculosis H37Rv ATCC 27294 incubated for 5 days by alamar blue based colorimetric assay; type: functional; settings: H37Rv ATCC 27294, 120 h
[3] = Cytotoxicity against monkey Vero cells assessed as cell viability at 100 ug/ml by WST-1 assay relative to control; type: cell-based; settings: chlorocebus sabaeus, read-out: Activity

Row | SMILES | viability at 50 ug/ml [1] [%] | MIC [2] [µM] | viability at 100 ug/ml [3] [%]
1 | COC(=O)c1coc(/C=C/c2ccc(OC)cc2)n1 | 99.6 | 24.1 (≈ 6.25 µg/mL) | 96.8
2 | C[C@H]1COc2c(N3CCN(C)CC3)c(F)cc3c(=O)c(C(=O)O)cn1c23 [LEVOFLOXACIN] | – | 0.54 (≈ 0.195 µg/mL) | –
3 | COC(=O)[C@H](COC(=O)/C=C/c1ccc(F)cc1)NC(=O)/C=C/c1ccc(F)cc1 | 21.1 | 120 (≈ 50 µg/mL) | 8.65
4 | COC(=O)[C@H](CO)NC(=O)/C=C/c1ccc(C)cc1 | 100 | > 380 | 101
5 | COC(=O)[C@H](COC(=O)/C=C/c1ccccc1)NC(=O)/C=C/c1ccccc1 | 16.8 | > 264 | 10.7
6 | COC(=O)[C@@H]1COC(/C=C/c2ccccc2)=N1 | 68.6 | 54.1 (≈ 12.5 µg/mL) | 12.4
7 | CC[C@@H](CO)NCCN[C@@H](CC)CO [ETHAMBUTOL] | – | 15.2 (≈ 3.11 µg/mL) | –
8 | COC(=O)[C@@H]1COC(/C=C/c2ccc(C)cc2)=N1 | 85.1 | 25.4 (≈ 6.23 µg/mL) | 17
9 | COC(=O)[C@H](CO)NC(=O)/C=C/c1ccccc1 | 97.1 | > 401 | 99.4
10 | COC(=O)[C@@H]1COC(/C=C/c2ccc(F)cc2)=N1 | 91.6 | 50.1 (≈ 12.5 µg/mL) | 18.6
11 | COC(=O)[C@@H]1COC(/C=C/c2ccc(OC)cc2)=N1 | 94.8 | 23.9 (≈ 6.24 µg/mL) | 20.9
12 | O=C(/C=C/c1ccccc1)O/C(=N/C1CCCCC1)NC1CCCCC1 | 83.9 | > 282 | 83.8
13 | COC(=O)[C@H](COC(=O)/C=C/c1ccc(OC)cc1)NC(=O)/C=C/c1ccc(OC)cc1 | 39.1 | 114 (≈ 50 µg/mL) | 11.4
14 | COC(=O)c1coc(/C=C/c2ccccc2)n1 | 99.6 | 54.5 (≈ 12.5 µg/mL) | 102
15 | O=C(/C=C/c1ccc(F)cc1)O/C(=N/C1CCCCC1)NC1CCCCC1 | 82.5 | > 268 | 85.5
16 | COC(=O)[C@H](COC(=O)/C=C/c1ccc(C)cc1)NC(=O)/C=C/c1ccc(C)cc1 | 28.8 | 123 (≈ 50 µg/mL) | 18.7
17 | COC(=O)c1coc(/C=C/c2ccc(C)cc2)n1 | 102 | 3.21 (≈ 0.781 µg/mL) | 100
18 | CO[C@H]1/C=C/O[C@@]2(C)Oc3c(C)c(O)c4c(O)c(c(/C=N/N5CCN(C)CC5)c(O)c4c3C2=O)NC(=O)/C(C)=C\C=C\[C@H](C)[C@H](O)[C@@H](C)[C@@H](O)[C@@H](C)[C@H](OC(C)=O)[C@@H]1C [RIFAMPIN] | – | 0.06 (≈ 0.0494 µg/mL) | –
19 | Cc1ccc(/C=C/C(=O)O/C(=N/C2CCCCC2)NC2CCCCC2)cc1 | 79.3 | > 271 | 95.5
20 | COC(=O)[C@H](CO)NC(=O)/C=C/c1ccc(F)cc1 | – | > 374 | –
21 | COC(=O)c1coc(/C=C/c2ccc(F)cc2)n1 | 102 | 12.6 (≈ 3.12 µg/mL) | 99
22 | COC(=O)[C@H](CO)NC(=O)/C=C/c1ccc(OC)cc1 | 100 | > 358 | 103
